Laboratory results reported in publication PMC10272112 (Nature Communications, 2023).

Tests used:
Assay in all cases: Chemoproteomic competition pulldown assay (co-competed CoREST partner)
Assay type in all cases: binding
[1] = system: HMG20A
Procedure: (§1) To identify proteins directly bound by lipoic acid, we employed a chemoproteomic competition assay. Briefly, (R/S)-LA was immobilized on sepharose beads via an amidation reaction to form an affinity matrix (abbreviated as iL; Fig. 1a). This affinity matrix can be incubated with cell lysate to pull down potential LA or LM target proteins and identify these targets via bottom-up proteomics. In a competition assay, free LA or LM were incubated with lysate at different concentrations before pulling down and quantifying target proteins. […] (Fig. 1b, see “Methods” for details). […] The lysate buffer used in this assay contains 1 mM DTT to mimic the intracellular reductive milieu and to reduce lipoic acid and LM. […] Additional competition assays performed in lung adenocarcinoma cell A549 lysate also identified HDAC1, HDAC2, and HDAC6 as targets (Supplementary Fig. 1b). Amongst the three cell lines tested, HDACs were the only confidently identified targets across the 1500–3000 proteins quantified in these assays. […] We validated the results by analogous pulldown competition assays using two other affinity matrices prepared via the immobilization of either the HDAC inhibitor Quisinostat (iQ) and an analog of the class IIa HDAC inhibitor Bürli’s 31[14] (iC)[12]. We have previously shown that these affinity matrices specifically bind to the active sites of HDACs and have used them for HDACi selectivity profiling. Indeed, binding of (R/S)-LA and (R/S)-LM to HDAC1, HDAC2, HDAC3, HDAC6, and, to a lesser extent, HDAC8 was confirmed in these assays (Supplementary Fig. 1c, d). No binding to class IIa HDACs or the recently discovered common HDAC inhibitor off-target MBLAC2 was observed (Supplementary Fig. 1e)[12]. […] This observation might reflect electrostatic repulsion between the HDAC10 active site gate-keeper glutamic acid residues[15],[16] and the terminal carboxylic acid of LA.
(§2) To assess the degree of protein depletion from lysates by the affinity matrix, a second pulldown (PDPD) with fresh beads was performed using the unbound protein fraction from the vehicle control flow through. The beads were washed (1 × 1 mL of lysis buffer without inhibitors and only 0.4% Igepal, 2 × 2 mL of lysis buffer without inhibitors and only 0.2% Igepal), and captured proteins were denatured with 8 M urea buffer, alkylated with 55 mM chloroacetamide and digested with Trypsin according to standard procedures. The resulting peptides were desalted on a C18 filter plate (Sep-Pak® tC18 µElution Plate, Waters), vacuum dried, and stored at −20 °C until LC–MSMS measurement.
(§3) For the competition assays, relative binding was calculated based on the protein intensity ratio to the DMSO control for every single inhibitor concentration. EC50 values were derived from a four-parameter log-logistic regression with variable slope (constrain: bottom > 0). The obtained EC50 values were multiplied with a protein-dependent correction factor (cf), resulting in the apparent Kd value (Kd^app). The correction factor is determined by calculating the ratio of the protein intensity of two consecutive pulldowns of the vehicle control sample[13]. Targets of the inhibitors were annotated manually according to published procedures[12],[46],[47]. […] Additionally, the number of unique peptides and MSMS counts per condition were taken into account. Positive target binding across several independent experiments performed with different cell lysates further substantiated our confidence for a true positive drug-target binding event.

[2] = system: HMG20B
Procedure: as §1, §2, §3

[3] = system: KDM1A
Procedure: as §1, §2, §3

[4] = system: RCOR1
Procedure: as §1, §2, §3

[5] = system: RCOR3
Procedure: as §1, §2, §3

[6] = iL, A549 lysate, log10 M -4.52288
[7] = iL, A549 lysate, log10 M -5.52288
[8] = iL, A549 lysate, log10 M -6.52288
[9] = iL, A549 lysate, log10 M -7.52288
[10] = iL, A549 lysate, log10 M -8.52288
[11] = iQ, SW620 lysate, log10 M -3.52288
[12] = iQ, SW620 lysate, log10 M -4.52288
[13] = iQ, SW620 lysate, log10 M -5.52288
[14] = iQ, SW620 lysate, log10 M -6.52288
[15] = iL, SW620 lysate, log10 M -3.52288
[16] = iL, SW620 lysate, log10 M -4.52288
[17] = iL, SW620 lysate, log10 M -5.52288
[18] = iL, SW620 lysate, log10 M -6.52288

O=C(O)CCCCC1CCSS1 (racemic) [(R/S)-LA, (R/S)-lipoic acid]
relative binding vs DMSO ([1]; iL, A549 lysate, log10 M -4): 0
relative binding vs DMSO [1, 6]: 0
relative binding vs DMSO ([1]; iL, A549 lysate, log10 M -5): 0
relative binding vs DMSO [1, 7]: 0.4211
relative binding vs DMSO ([1]; iL, A549 lysate, log10 M -6): 0.8299
relative binding vs DMSO [1, 8]: 0.9993
relative binding vs DMSO [1, 9]: 1.185
relative binding vs DMSO ([1]; iL, A549 lysate, log10 M -8): 1.321
relative binding vs DMSO [1, 10]: 1.259
relative binding vs DMSO [1, 11]: 0.2638
relative binding vs DMSO ([1]; iQ, SW620 lysate, log10 M -4): 0.07541
relative binding vs DMSO [1, 12]: 0.5511
relative binding vs DMSO ([1]; iQ, SW620 lysate, log10 M -5): 0.4652
relative binding vs DMSO [1, 13]: 0.8795
relative binding vs DMSO ([1]; iQ, SW620 lysate, log10 M -6): 0.793
relative binding vs DMSO [1, 14]: 1.133
relative binding vs DMSO ([1]; iQ, SW620 lysate, log10 M -7): 0.8444
relative binding vs DMSO ([2]; iL, A549 lysate, log10 M -4): 0.09481
relative binding vs DMSO [2, 6]: 0
relative binding vs DMSO ([2]; iL, A549 lysate, log10 M -5): 0
relative binding vs DMSO [2, 7]: 0
relative binding vs DMSO ([2]; iL, A549 lysate, log10 M -6): 0.5309
relative binding vs DMSO [2, 8]: 1.1771
relative binding vs DMSO [2, 9]: 1.54
relative binding vs DMSO ([2]; iL, A549 lysate, log10 M -8): 1.531
relative binding vs DMSO [2, 10]: 0.9986
relative binding vs DMSO [2, 11]: 0.2338
relative binding vs DMSO ([2]; iQ, SW620 lysate, log10 M -4): 0.0385
relative binding vs DMSO [2, 12]: 0.4714
relative binding vs DMSO ([2]; iQ, SW620 lysate, log10 M -5): 0.5482
relative binding vs DMSO [2, 13]: 0.8626
relative binding vs DMSO ([2]; iQ, SW620 lysate, log10 M -6): 0.8649
relative binding vs DMSO [2, 14]: 1.158
relative binding vs DMSO ([2]; iQ, SW620 lysate, log10 M -7): 1.067
relative binding vs DMSO ([3]; iL, A549 lysate, log10 M -4): 0.08234
relative binding vs DMSO [3, 6]: 0.1175
relative binding vs DMSO ([3]; iL, A549 lysate, log10 M -5): 0.1963
relative binding vs DMSO [3, 7]: 0.3595
relative binding vs DMSO ([3]; iL, A549 lysate, log10 M -6): 0.6514
relative binding vs DMSO [3, 8]: 1.056
relative binding vs DMSO [3, 9]: 0.9439
relative binding vs DMSO ([3]; iL, A549 lysate, log10 M -8): 1.171
relative binding vs DMSO [3, 10]: 1.264
relative binding vs DMSO [3, 15]: 0
relative binding vs DMSO ([3]; iL, SW620 lysate, log10 M -4): 0
relative binding vs DMSO [3, 16]: 0
relative binding vs DMSO ([3]; iL, SW620 lysate, log10 M -5): 0.08571
relative binding vs DMSO [3, 17]: 0.9092
relative binding vs DMSO ([3]; iL, SW620 lysate, log10 M -6): 1.31
relative binding vs DMSO [3, 18]: 1.608
relative binding vs DMSO ([3]; iL, SW620 lysate, log10 M -7): 1.68
relative binding vs DMSO [3, 11]: 0.1418
relative binding vs DMSO ([3]; iQ, SW620 lysate, log10 M -4): 0.1346
relative binding vs DMSO [3, 12]: 0.3513
relative binding vs DMSO ([3]; iQ, SW620 lysate, log10 M -5): 0.5517
relative binding vs DMSO [3, 13]: 0.6829
relative binding vs DMSO ([3]; iQ, SW620 lysate, log10 M -6): 0.6182
relative binding vs DMSO [3, 14]: 0.6303
relative binding vs DMSO ([3]; iQ, SW620 lysate, log10 M -7): 0.7048
relative binding vs DMSO ([4]; iL, A549 lysate, log10 M -4): 0.04582
relative binding vs DMSO [4, 6]: 0.0556
relative binding vs DMSO ([4]; iL, A549 lysate, log10 M -5): 0.1265
relative binding vs DMSO [4, 7]: 0.344
relative binding vs DMSO ([4]; iL, A549 lysate, log10 M -6): 0.6862
relative binding vs DMSO [4, 8]: 1.238
relative binding vs DMSO [4, 9]: 0.8815
relative binding vs DMSO ([4]; iL, A549 lysate, log10 M -8): 1.065
relative binding vs DMSO [4, 10]: 1.673
relative binding vs DMSO [4, 15]: 0
relative binding vs DMSO ([4]; iL, SW620 lysate, log10 M -4): 0
relative binding vs DMSO [4, 16]: 0.2767
relative binding vs DMSO ([4]; iL, SW620 lysate, log10 M -5): 0.2629
relative binding vs DMSO [4, 17]: 0.4301
relative binding vs DMSO ([4]; iL, SW620 lysate, log10 M -6): 0.8481
relative binding vs DMSO [4, 18]: 1.192
relative binding vs DMSO ([4]; iL, SW620 lysate, log10 M -7): 0.8783
relative binding vs DMSO [4, 11]: 0.1176
relative binding vs DMSO ([4]; iQ, SW620 lysate, log10 M -4): 0.1659
relative binding vs DMSO [4, 12]: 0.5043
relative binding vs DMSO ([4]; iQ, SW620 lysate, log10 M -5): 0.4267
relative binding vs DMSO [4, 13]: 0.9917
relative binding vs DMSO ([4]; iQ, SW620 lysate, log10 M -6): 1.001
relative binding vs DMSO [4, 14]: 0.9723
relative binding vs DMSO ([4]; iQ, SW620 lysate, log10 M -7): 0.6892
relative binding vs DMSO ([5]; iL, A549 lysate, log10 M -4): 0
relative binding vs DMSO [5, 6]: 0
relative binding vs DMSO ([5]; iL, A549 lysate, log10 M -5): 0
relative binding vs DMSO [5, 7]: 0
relative binding vs DMSO ([5]; iL, A549 lysate, log10 M -6): 0.7701
relative binding vs DMSO [5, 8]: 1.109
relative binding vs DMSO [5, 9]: 1.217
relative binding vs DMSO ([5]; iL, A549 lysate, log10 M -8): 1.199
relative binding vs DMSO [5, 10]: 1.533
relative binding vs DMSO [5, 11]: 0.06142
relative binding vs DMSO ([5]; iQ, SW620 lysate, log10 M -4): 0.2749
relative binding vs DMSO [5, 12]: 0.55
relative binding vs DMSO ([5]; iQ, SW620 lysate, log10 M -5): 0.4741
relative binding vs DMSO [5, 13]: 0.7307
relative binding vs DMSO ([5]; iQ, SW620 lysate, log10 M -6): 0.7404
relative binding vs DMSO [5, 14]: 0.7642
relative binding vs DMSO ([5]; iQ, SW620 lysate, log10 M -7): 0.7542
